Tests used:
[1] = system: multiple tumor cell types; test: ATP production in tumor cells (luciferin-luciferase); type: cell-based, human
Description: (§1) Intracellular ATP concentrations were measured by the luciferin—luciferase method using an ATP measuring kit (Biochain). The ATP concentration in each extract was measured with a microplate luminometer (Beckman Coulter) against standard ATP solutions used as reference. In some experiments, PC3 or LN229 cells were preincubated with sodium pyruvate for 7 h in the presence of vehicle or Gamitrinib before determination of ATP production.

LN229 cells [2] = test: ROS production, H2-DCFA labeling; type: cell-based, human; conditions: cytotoxic or non-cytotoxic concentrations, various time intervals
mTORC1 = mTORC1 signaling in tumor cells, Western blotting; type: cell-based, human
NIH3T3 fibroblasts = test: ATP production and AMPK/mTORC1 phosphorylation in non-transformed cells; type: cell-based
Description: (§2) For Western blotting, protein lysates were prepared from the different cell types in RIPA Buffer (150 mM NaCl, 1.0% Triton X-100, 0.5% sodium deoxycholate, 0.1% SDS, 50 mM Tris, pH 8.0) containing EDTA-free Protease Inhibitor Cocktail (Roche) and Phosphatase Inhibitor Cocktail 2 and 3 (Sigma Aldrich). Equal amounts of protein lysates were separated by SDS gel electrophoresis, transferred to PVDF membranes and incubated with primary antibodies of various specificities. Protein bands were detected by chemiluminescence.
as §1

tumor cells = test: Autophagy (LC3 conversion, LC3-CFP puncta); type: cell-based, human
Description: LN229 cells were transfected with various siRNAs, and mixed after 24 h with plasmid encoding cyan fluorescent protein (CFP) fused to human […] (LC3) cDNA in the presence of Lipofectamine 2000 Transfection Reagent (Invitrogen). After 48 h, transfected cells were fixed in 4% paraformaldehyde for 15 min at 37° C., washed, and examined by fluorescence microscopy (Nikon, E600). The numbers of CFP-LC3 punctate dots per cell was determined from three independent experiments. A minimum of 50 CFP-LC3-positive cells assessed from at least ten random fields per sample were counted in triplicate per each condition.
(§3) Samples were imaged using a Leica TCS SP2 confocal microscope. For determination of autophagy, cells under the various conditions tested were harvested after 12 h, and analyzed with an antibody to […] (LC3) by Western blotting.

LN229 cells [3] = test: Cell viability by MTT; type: cell-based, human; conditions: Gamitrinib combined with 2-DG vs each agent alone
Description: (§4) Various cell types were seeded in triplicate onto 96-well plates at 4×10^3 cells/well, treated with vehicle, Gamitrinib or 17-AAG (0-20 μM) for 12 h, and analyzed for changes in metabolic activity by an MTT assay. For determination of apoptosis, LN229 cells ([…]) were labeled for annexin V and propidium iodide (PI) (BD Biosciences), and analyzed by multiparametric flow cytometry (BD).

PC3 cells = test: ER stress luciferase-promoter reporter assay; type: cell-based, human; conditions: PC3, 20 h
Description: In another series of experiments, PC3 cells were transfected with control or Grp78-directed siRNA, and analyzed for cell viability after 24 h by an MTT assay. For promoter analysis, PC3 cells were plated in triplicate onto 48-well plates at 1.4×10^4 cells/well, and cotransfected with Firefly Luciferase-reporters for IRE1, ATF6, PERK or CHOP and a constitutive reporter (pTK-Renilla Luc) in a 10:1 ratio using X-tremeGENE reagent (Roche). After 24 h, cells were treated with vehicle, Gamitrinib, tunicamycin or 2-DG and analyzed after 20 h for Firefly and Renilla luciferase activity using a Dual Luciferase Reporter Assay System (Promega). Transfection of plasmid DNAs was carried out with lipofectamine 2000 (Invitrogen) according to published protocols. A PPIase-defective CypD H168Q mutant cDNA was generated by Quick-Change site-directed mutagenesis (Stratagene) using primers 5′-[…]-3′ (forward) and 5′-[…]-3′ (reverse) (mutated sequences are bolded). The inserted mutation (bolded) was confirmed by DNA sequencing, and cloned in a pcDNA3.0 expression vector (Invitrogen) for reconstitution experiments in CypD−/− MEFs.

WT BRAF melanoma cells = test: AMPK and autophagy signaling in WT BRAF melanoma cells; type: cell-based, human
Excerpt: Human glioblastoma LN229, prostate adenocarcinoma PC3 or LNCaP cells, or normal NIH3T3 fibroblasts were obtained from the American Tissue Culture Collection (ATCC, Manassas, Va.), and maintained in culture according to the supplier's specifications. The following wild type (WT) BRAF N-Ras mutant melanoma cells WM852 and WM1366, and melanoma cells carrying a V600E activating mutation in the BRAF oncogene, 451Lu, Me11617 and WM983B were used in this study. WT or CypD knockout Mouse Embryonic Fibroblasts (MEFs, CypD−/−) were characterized earlier 40. In some experiments, CypD−/− MEFs were stably transfected with control plasmid, WT CypD or peptidyl prolyl isomerase (PPIase)-deficient H168Q CypD mutant cDNA, and analyzed for differential recruitment of HK-II to mitochondrial or cytosolic fractions.
as §2, §3

[4] = system: BRAF V600E melanoma cells; test: Melanoma cell viability by MTT, BRAF V600E; type: cell-based, human
Description: as §4

WT BRAF spheroids = test: 3D organotypic spheroids, WT BRAF; type: cell-based, human; conditions: collagen-embedded, 72 h
Description: For analysis of tumor cell survival in 3D organotypic cultures, melanoma spheroids were prepared as previously described. Briefly, 50 μl aliquots of the various melanoma cell types (5×10^4 cells/ml) were seeded onto 96-well plates coated with 1.5% agar (Difco, Sparks, Md.) in PBS. Spheroids were allowed to form for 72 h and then embedded in 100 μl of bovine collagen type I (Organogenesis, Canton, Mass.). Spheroids were overlaid with 100 μl of Tu2% growth medium and treated with inhibitors for 72 hours. Quantification of live vs. dead cells under the various conditions tested was performed by staining the melanoma spheroids after 72 h of treatment with calcein-AM (live) and Topro-3 (dead) (Invitrogen) for 1 h (data not shown).

LN229 cells [5] = test: Apoptosis by annexin V / PI flow cytometry; type: cell-based, human; conditions: HK-II silenced cells vs control transfectants
Description: as §4

CO[C@H]1/C=C\C=C(/C)C(=O)NC2=CC(=O)C(NCCCCCC[P+](c3ccccc3)(c3ccccc3)c3ccccc3)=C(C[C@@H](C)C[C@H](OC)[C@H](O)[C@@H](C)/C=C(\C)[C@@H]1OC(N)=O)C2=O [Gamitrinib]
time to inhibition of ATP production ([1]; multiple tumor cell types): ≤ 5 h | ATP production ([1]; tumor cell types, non-cytotoxic concentrations, 5 h): concentration-dependent inhibition of ATP production | production of reactive oxygen species (ROS) (LN229 cells [2]): had no effect on production of reactive oxygen species (ROS) | phosphorylation of mTOR, 4EBP1 and p70S6 (mTORC1) (mTORC1): concentration dependent suppression of phosphorylation of mTOR, and its downstream kinases 4EBP1 and p70S6 | ATP production, AMPK or mTORC1 phosphorylation (NIH3T3 fibroblasts): did not affect ATP production, or AMPK or mTORC1 phosphorylation | autophagy (LC3-II conversion) (tumor cells): strongly activated autophagy | tumor cell killing, combined with 2-DG (LN229 cells [3]): increased tumor cell killing | minimal CHOP promoter activity (PC3 cells): transcriptionally induced | transcriptional activation of response elements of IRE-1, ATF-6 and PERK (PC3 cells): comparably induced transcriptional activation | autophagy (WT BRAF melanoma cells; WT BRAF cells): stimulated autophagy | AMPK phosphorylation (WT BRAF melanoma cells; WT BRAF melanoma cells): induced AMPK phosphorylation | IC50 [4]: 1950 ± 210 nM | cell death in 3D spheroids (WT BRAF spheroids): resistant to cell death | Annexin V labeling (LN229 cells [5]): increased Annexin V labeling
